Measured values reported in patent publication US20040242870A1, “Antiviral methods and compounds” (priority 2000, published 2004).
≈ marks a conversion by molar mass, not a printed value.

What was measured:
[1] = test system: HIV-1; assay: HeLa CD4 LTR β-gal HIV-1 attachment assay; assay type: cell-based; details: Human immunodeficiency virus 1, HeLa, read-out: IC50
Method: The attachment assay was performed with the HeLa CD4 LTR , β-gal cells available from the AIDS Research and Reference Reagent Repository. […] HeLa CD4 LTR β-gal cells express cell surface CD4 and contain an LTR β-galactosidase reporter construct. Upon infection either the Tat protein incorporated into the virion or new Tat produced following virus integration and transcription trans-activates the LTR β-gal reporter, leading to expression of the β-galactosidase enzyme. HeLa CD4 LTR β-gal cells are routinely cultured with the required selection antibiotics and screened for mycoplasma contamination. Twenty-four h prior to initiation of the assay cells were trypsinized, counted and 1×10^4 cells placed in a 0.2 cm well in media without selection antibiotics. […] A known titer of virus was then added to the wells and the incubation continued for 1 h. At the end of the incubation the wells were washed 6 times with media and the culture continued for 48 h. At 48 h the wells were washed one time with PBS and β-galactosidase enzyme expression determined by chemiluminescence per manufacturers instructions (Tropix Gal-screen™, Tropix, Bedford, Mass.). Compound toxicity was monitored on sister plates using MTS dye reduction.

[2] = test system: HeLa CD4 LTR β-gal cells; assay: Compound toxicity in attachment assay (MTS dye reduction, sister plates); assay type: cell-based
Method: (§1) At assay termination the assay plates were stained with the soluble tetrazolium-based dye MTS (CellTiter96® Reagent Promega) to determine cell viability and quantify compound toxicity. MTS is metabolized by the mitochondria enzymes of metabolically active cells to a soluble formazan product, allowing the rapid quantitative analysis cell viability and compound cytotoxicity. […] At termination of the assay 20 μL of MTS reagent was added per well and incubated for 4 h at 37° C. Adhesive plate sealers were used in place of the lids, the sealed plate was inverted several times to mix the soluble formazan product and the plate was read spectrophotometrically at 490 nm with a Molecular Devices Vmax plate reader.
The attachment assay was performed with the HeLa CD4 LTR , β-gal cells available from the AIDS Research and Reference Reagent Repository. […] HeLa CD4 LTR β-gal cells express cell surface CD4 and contain an LTR β-galactosidase reporter construct. Upon infection either the Tat protein incorporated into the virion or new Tat produced following virus integration and transcription trans-activates the LTR β-gal reporter, leading to expression of the β-galactosidase enzyme. HeLa CD4 LTR β-gal cells are routinely cultured with the required selection antibiotics and screened for mycoplasma contamination. Twenty-four h prior to initiation of the assay cells were trypsinized, counted and 1×10^4 cells placed in a 0.2 cm well in media without selection antibiotics. Media was removed at 24 h and compound in media placed on the cells and incubated for 15 to 30 min at 37° C. A known titer of virus was then added to the wells and the incubation continued for 1 h. At the end of the incubation the wells were washed 6 times with media and the culture continued for 48 h. At 48 h the wells were washed one time with PBS and β-galactosidase enzyme expression determined by chemiluminescence per manufacturers instructions (Tropix Gal-screen™, Tropix, Bedford, Mass.). Compound toxicity was monitored on sister plates using MTS dye reduction.

[3] = test system: HIV-1; assay: HeLa CD4 LTR β-gal/HL2/3 HIV-1 fusion assay; assay type: cell-based; details: Human immunodeficiency virus 1, HL2/3, read-out: Antiviral Activity IC50
Text: This assay uses the HeLa CD4 LTR β-gal and HL2-3 cells available from the AIDS Research and Reference Reagent Repository. The HL2/3 are derived from HeLa cells and engineered to express HIV gp120 on their cell surface and Tat protein in their cytoplasma. Thus following gp 120/CD4/coreceptor-mediated fusion; cytoplasmic mixing results in the HL2/3 cell-derived Tat trans-activation of the β-galactosidase reporter. […] Twenty-four h prior to initiation of the assay cells were trypsinized, counted and 5×10^3 cells placed in a 0.2 cm well in media without selection antibiotics. To initiate the fusion assay HeLa CD4 LTR β-gal (5×10^3 cells per 0.2 cm well) were incubated with compound for 1 h at 37° C. HL2/3 cells (5×10^3) were added to the 0.2 cm well and the incubation continued for 48 h. At 48 h the wells were washed 1 time with PBS and β-galactosidase enzyme expression determined by chemiluminescence per manufacturers instructions (Tropix Gal-screen™, Tropix, Bedford, Mass.). Compound toxicity was monitored on sister plates using MTS dye reduction.

[4] = test system: HIV-1 strain RoJo; assay: PBMC time-of-addition assay (RT in cell-free supernatant at 6 days); assay type: cell-based
Method: Peripheral blood monocular cells (PBMCs) were obtained from normal hepatitis and HIV-1 negative donors by ficoll hypaque gradient separation. The mononuclear cells were washed to remove residual separation media, counted, viability determined and resuspended in RPMI 1640 medium supplemented with 15 % FBS (heat inactivated), 2 mM L-glutamine, 100 U/mL penicillin, 100 μg/mL streptomycin, and 10 μg/mL gentamycin with 2 μg/mL phytohemagluttin (PHA) at 1×10^6 cells/mL. The cells were cultured for 48 to 72 h at 37° C., 5% CO2. Following incubation, cells were collected by centrifugation, washed and resuspended in RPMI 1640 supplemented with 15% FBS (heat inactivated), 2 mM L-glutamine, 100 U/mL penicillin, 100 μg/mL streptomycin, and 10 μg/mL gentamycin with 20 U/mL recombinant IL-2 (R & D Systems, Minneapolis, Minn.). IL-2 was included in the culture medium to maintain the cell division initiated by the PHA mitogenic stimulation, and promote optimal growing conditions for the PBMCs. The cultures were then maintained until use by ½ culture volume change with fresh IL-2 containing medium every 3 days.
(§2) Human peripheral blood mononuclear cells from a minimum of 2 donors, that have been blasted with PHA and IL-2, were counted, viability determined by Trypan Blue dye exclusion and mixed in equal ratios. Pooled donors were used to minimize the variability observed between individual donors which results from quantitative and qualitative differences in HIV infection and overall response to the PHA and IL-2 of primary lymphocyte populations. The cells were resuspended at 1×10^6 cells/mL in RPMI 1640 without phenol red supplemented with 15% Fetal Bovine Serum (heat inactivated), 2 mM L-glutamine, 100 U/mL penicillin, 100 μg/mL streptomycin, 10 μg/Ln gentamycin and IL-2 (20 U/mL, R&D Systems, Minneapolis, Minn.). Fifty microliters of cells were then distributed to the inner 60 wells of a 96 well round bottom microtiter culture plate in a standard format developed by the Infectious Disease Research department of Southern Research Institute. Each plate contains cell control wells (cells only), virus control wells (cells plus virus), and experimental wells (drug plus cells plus virus). Alternatively, cells were cultured in T25 cm^2 or T75 cm^2 tissue culture flasks at a starting density of 1×10^6 cells per ml. Serially diluted compounds were added to the microtiter plate or tissue culture flask followed by the appropriate pre-titered strain of HIV-1. For virus replication inhibition experiments the HIV-1 strain RoJo was used. This is a low passage presumable subtype B pediatric isolate with a syncytium inducing (SI) phenotype in MT-2 cells isolated by Southern Research Institute personnel. All samples were assayed in triplicate where possible with an accompanying determination of compound toxicity. The final volume per well in the microtiter plates was 200 μL. The final volume in the tissue culture flask varied depending upon experimental design and flask size. Assays were incubated for 6 days in a humidified atmosphere at 37° C., 5% CO2, after which supernatants were collected, for analysis of RT activity and cell viability by MTS dye reduction. Culture were also examined microscopically, any abnormalities noted, and in the case of tissue culture flasks cell counts and viability determined by Trypan Blue Dye exclusion.
Time-of-addition assays were performed with PBMCs in two ways. For both assays, PBMCs were isolated and cultured under the conditions as described above. Time-of-addition assays were carried out in either a tissue culture flask format (T-75 cm^2) or in microtiter wells. In both cases due to the lack of plastic adherence and heterogeneity of the PBMC population for susceptibility to infection, it was not possible to use complete removal of virus following a timed adsorption to synchronize the infection and limit the assay to a single round of infection. […]

[5] = test system: PBMCs; assay: PBMC apoptosis by flow cytometry (APO-BRDU kit); assay type: cell-based, Human
Method: Flow cytometry studies were carried out on PHA/IL-2 induced PBMCs treated for 6 days with the various test compounds. Prior to flow cytometry the PBMCs were washed, counted and 1×10^6 cells resuspended in PBS and stained for CD4 or CD8 surface markers using anti-CD4.PE or CD8.PE (both from PharMingen) for 30 min at 4° C. The PBMC were then washed, fixed (Cytofix) and permeabilized (Cytoperm) followed by staining for apoptosis-related DNA damage. Initial experiments used the BrdU Flow Kit from PharMigen (2354KK). […] For both kits, manufacturers instructions were followed for staining and analysis of the samples. Following the appropriate staining protocol the cells were analyzed using a Becton Dickinson (Bedford, Mass.) FACSSort
In another series of experiments, the IG compounds and cannabidiol treated cells were assessed for the induction of apoptosis (see Tables 8 and 9). […] As IL-2 is an essential component for maintaining the health of PHA induced PBMCs, a second focus of these studies focuses on the effect of the compounds in the absence of IL-2.

[6] = test system: PBMCs; assay: PBMC cytotoxicity in time-of-addition assay; assay type: cell-based, Human
Text: as §2
Time-of-addition assays were performed with PBMCs in two ways. For both assays, PBMCs were isolated and cultured under the conditions as described above. Time-of-addition assays were carried out in either a tissue culture flask format (T-75 cm^2) or in microtiter wells. In both cases due to the lack of plastic adherence and heterogeneity of the PBMC population for susceptibility to infection, it was not possible to use complete removal of virus following a timed adsorption to synchronize the infection and limit the assay to a single round of infection. Therefore, serial washing by partial removal of the media was used to reduce the concentration of virus and compound (if required) in the assay. Compound addition in relationship to antiviral activity was either assessed over a short addition interval immediately before or after virus addition or for up to 72 h post infection. For all assays virus replication was assessed at 6 days of culture by determining RT expression in cell-free supernatants. In the tissue culture flask format cells were counted and Trypan Blue Dye exclusion used to monitor compound cytotoxicity. Cell viability in the 96 well microtiter plate format was determined by MTS dye reduction. AZT was used as a positive control.
as §1, with “Adhesive plate sealers were used in place of the lids, the sealed plate was inverted several times to mix the soluble formazan product and the plate was read spectrophotometrically at 490 nm with a Molecular Devices Vmax plate reader.” left out

[7] = IL-2 supplemented media, 1 μM, HIV +
[8] = IL-2 supplemented media, 1 μM, HIV −

Molecule `COc1cc(-c2ccc(/N=N/c3ccc4c(S(=O)(=O)O)cc(S(=O)(=O)O)c(N)c4c3O)c(OC)c2)ccc1/N=N/c1ccc2c(S(=O)(=O)O)cc(S(=O)(=O)O)c(N)c2c1O` [CSB, Chicago Sky Blue, reference compound] has an IC50 ([1]; Experiment 1, pretreat 0 h) of 1.1 µg/mL (≈ 1.22 µM), an IC50 ([1]; Experiment 1, pretreat 4 h) of 1.71 µg/mL (≈ 1.89 µM) and an IC50 ([1]; Experiment 1, pretreat 24 h) of 1.3 µg/mL (≈ 1.44 µM). For the same molecule, the IC50 ([1]; Experiment 2, pretreat 0 h) was 0.17 µg/mL (≈ 0.188 µM), the IC50 ([1]; Experiment 2, pretreat 4 h) was 2.11 µg/mL (≈ 2.33 µM) and the IC50 ([1]; Experiment 2, pretreat 24 h) was 4.7 µg/mL (≈ 5.19 µM). The TC50 ([2]; Experiment 1, pretreat 0 h) was greater than 10 µg/mL, the TC50 ([2]; Experiment 1, pretreat 4 h) was greater than 10 µg/mL and the TC50 ([2]; Experiment 1, pretreat 24 h) was greater than 10 µg/mL. It also gave a TC50 ([2]; Experiment 2, pretreat 0 h) greater than 10 µg/mL, a TC50 ([2]; Experiment 2, pretreat 4 h) greater than 10 µg/mL and a TC50 ([2]; Experiment 2, pretreat 24 h) greater than 10 µg/mL. For the same molecule, the IC50 [3] was 1.75 µg/mL (≈ 1.93 µM).

For `Cc1cn([C@H]2C[C@H](N=[N+]=[N-])[C@@H](CO)O2)c(=O)[nH]c1=O` [AZT, reference compound], the enhancement of activity ([4]; 4 h preincubation) was 4.6 fold, the IC50 ([4]; pre-treat 0 h prior to infection) was 1.3 nM and the IC50 ([4]; pre-treat 2 h prior to infection) was 1.1 nM. The IC50 ([4]; pre-treat 4 h prior to infection) was 1.1 nM, the IC50 ([4]; pre-treat 24 h prior to infection) was 3.1 nM and the “% Apoptosis” value ([5]; IL-2 deficient media, 1 μM, HIV +) was 13.7%. The “% Apoptosis” value ([5]; IL-2 deficient media, 1 μM, HIV −) was 15.1%, the “% Apoptosis” value [5, 7] was 13.3% and the “Fold Change” value [5, 7] was 0.8. The “% Apoptosis” value [5, 8] was 15.0%, the “Fold Change” value [5, 8] was 1.3 and the TC50 ([6]; 6 h post infection) was greater than 4 µM. The TC50 ([6]; at infection) was greater than 4 µM and the TC50 ([6]; −4 h pre (relative to infection)) was greater than 4 µM.

B1: FAS: positive control (kit and Fas ligand) of the apoptosis procedure (protein, UniProt P48023 130-281, looked up)
Tumor necrosis factor ligand …: QIGHPSPPPEKKELRKVAHLTGKSNSRSMPLEWEDTYGIVLLSGVKYKKGGLVINETGLYFVYSKVYFRGQSCNNLPLSHKVYMRNSKYPQDLVMMEGKMMSYCTTGQMWARSSYLGAVFNLTSADHLYVNVSELSLVNFEESQTFFGLYKL
With B1 the “% Apoptosis” value ([5]; IL-2 deficient media, HIV +, positive control, concentration not given) was 16.2%, the “% Apoptosis” value ([5]; IL-2 deficient media, HIV −, positive control, concentration not given) was 13.7% and the “% Apoptosis” value ([5]; IL-2 supplemented media, HIV +, positive control, concentration not given) was 17.3%. For the same molecule, the “% Apoptosis” value ([5]; IL-2 supplemented media, HIV −, positive control, concentration not given) was 17.8%.
